# Results: patent publication US6358946B1, “C-6 ring-substituted pyrido[1,2-a]benzimidazole derivatives useful in treating central nervous system disorders” (Ortho-McNeil Pharmaceutical, Inc., priority 1999, dated 2002)
# Counter-ions that a name gives are not always drawn. Like-named read-outs stand apart in the source and are kept apart here.
# Key:
# [1] = tested on: behavior suppressed by punishment (conflict); assay: Suppression of anxiety in the adult male rat (Vogel conflict test); assay type: in vivo, Male rats; conditions: PO (oral) administration, MED >10 = active dose not determined, read-out: Conf. PO (minimum effective dose, MED)
# Procedure: Assay to Measure the Suppression of Anxiety in the Adult Male Rat
# The anxiolytic activity of selected compounds of the invention was assessed by determining their ability to release (disinhibit) behavior that had been suppressed by punishment (Vogel, J. R. et al. Psychopharmacology 1971, 21, 1). Male rats were deprived of water for 48 hrs and were deprived of food for 24 hrs prior to testing. After the first 24 hours of water deprivation, they were placed in the conflict chamber for a training period; wherein, they were allowed 200 unpunished licks from a bottle containing tap water. The experiment was run the next day. At the expected time of peak activity, the animals were placed in the chamber and allowed access to tap water. […] Their first lick initiates a 3-min test session. Subsequently, every 20th lick was punished by a 0.2-s shock delivered via the stainless-steel drinking-tube. Vehicle-treated control animals generally were willing to accept a median number of 3 to 8 shocks per test session. […] The Wilcoxon rank-sum test (Mann-Whitney U-test) was used to test for an increase (p<0.05, 1-tailed) in the median number of shocks in drug-treated groups, compared to a concurrently run vehicle-treated group. The biological assay is considered to be valid if the effects of a known anxiolytic (positive control) are detected, within the same experiment. A compound was considered active if there is a significant difference in the median number of shocks tolerated between the drug-treated group and the control group. The minimum effective doses (MED) for the active compounds of the invention are listed in Table 1 under the heading Conf., with PO indicating an oral route of administration. The MED was defined as the minimum dose of the drug-treatment as analyzed using the Wilcoxon rank-sum test (SAS; Statistical Analysis System, version 5.16). If the MED value is greater than 10, an active dose of the compound being tested had not been determined.
# [2] = target: benzodiazepine site of the GABA-A receptor; assay: Benzodiazepine receptor binding assay (inhibition of 3H-flunitrazepam binding to membranes); conditions: inhibition of 3H-flunitrazepam (ca. 3 nM) binding; over 10,000 = not active
# [3] = tested on: metrazol-induced clonic convulsions; assay: Suppression of metrazol-induced convulsions in adult male mice; assay type: in vivo, Male CD1 mice; conditions: Mus musculus, block of clonic convulsions after s.c. CD90 dose of metrazol
# Procedure: Assay to Determine the Suppression of Metrazol-Induced Convulsions in Adult Male Mice
# Compounds of the invention were tested for their ability to reduce metrazol-induced convulsions in mice (Swinyard, E. A. J. Am. Pharm Assoc. 1949, 38, 201). Male CD1 mice, were fasted at least 16 hours, were divided into equal groups and test compounds or vehicle were administered parenterally. Water was not withheld except during the period of observations. At the time of suspected peak activity, anti-pentylenetetrazol (anti-metrazol) activity was evaluated by the subcutaneous administration of the CD90 dose of metrazol (the dose of metrazol was determined from the dose-response curve producing clonic convulsions in 90% of animals that received the corresponding vehicle for this experiment). Metrazol was dissolved in 0.9% sodium chloride solution, and its dose volume was 10 mL/kg. Animals were housed individually for observation of clonic convulsions, tonic convulsions and death for a period of 30 min. Test compounds that blocked the clonic seizure component of the convulsion in at least 50% of the animals were considered active. The biological assay was considered to be valid if the effects of a known anticonvulsant (positive control) were detected, within the same experiment. Activity was reported as percent reduction of clonic convulsions from the vehicle group. The ED50 values of active compounds were calculated by the method of probits (Finney, D. J. Probit Analysis, London: 1971, Cambridge University Press) and are listed in Table 1. […] Compounds active in this screen are considered active anticonvulsion/antiepileptic agents, as well as having potential anxiolytic activity. The data for the test compounds is listed in Table 1 as Met. for either PO (oral) or IP (parenteral) routes of administration.
# [4] = PO (oral) administration, read-out: Met. PO (ED50)
# [5] = IP (parenteral) administration, read-out: Met. IP (ED50)
Compound,minimal effective dose [1],IC50 [2],"ED50 [3, 4]",melting point,"ED50 [3, 5]"
O=C1CCN2C(=C1C(=O)Nc1ccccc1F)Nc1c(N3CCSCC3)cccc12 [Compound 14],~3 mg/kg,8.43 nM,–,–,–
COc1ccccc1N1CCN(c2cccc3c2NC2=C(C(=O)Nc4c(F)cccc4F)C(=O)CCN23)CC1 [Compound 5],> 10 mg/kg,< 100 nM,–,–,–
"O=C1CCN2C(=C1C(=O)Nc1ccccc1F)Nc1c(N3CCC4(CC3)OCCO4)cccc12 [Compound 20, Pyrido[1,2-a]benzimidazole-4-carboxamide, N-2-fluorophenyl-1,2,3,5-tetrahydro-3-oxo-6-[8-(1,4-dioxa-8-azaspiro[4,5]decanyl)]-]",3 mg/kg,1.11 nM,0.83 mg/kg,–,–
"O=C1CCN2C(=C1C(=O)Nc1c(F)cccc1F)Nc1c(N3CCCCC3)cccc12 (as salt: hydrochloride) [Compound 10, Pyrido[1,2-a]benzimidazole-4-carboxamide, N-(2,6-difluorophenyl)-1,2,3,5-tetrahydro-3-oxo-6-(1-piperidinyl)-]",–,–,–,240 to 241 °C,–
O=C1CCN2C(=C1C(=O)Nc1c(F)cccc1F)Nc1c2cccc1-n1ccnc1 [Compound 1],–,0.66 nM,~10 mg/kg,–,≤ 1 mg/kg
O=C1CCN2C(=C1C(=O)Nc1ccccc1F)Nc1c(N3CCCCC3)cccc12 [Compound 9],≤ 3 mg/kg,69.5 nM,–,–,–
"CN1C2=C(C(=O)Nc3ccccc3F)C(=O)CCN2c2cccc(N3CCC4(CC3)OCCO4)c21 [Compound 21, Pyrido[1,2-a]benzimidazole-4-carboxamide, N-2-fluorophenyl-1,2,3-trihydro-3-oxo-5-methyl-6-[8-(1,4-dioxa-8-azaspiro[4,6]decanyl)]-]",≤ 0.3 mg/kg,0.13 nM,–,–,–
"CN1C2=C(C(=O)Nc3ccccc3F)C(=O)CCN2c2cccc(-n3ccnc3)c21 [Compound 13, Pyrido[1,2-a]benzimidazole-4-carboxamide, N-2-fluorophenyl-1,2,3-trihydro-3-oxo5-methyl-6-(1-imidazolyl)-]",> 3 mg/kg,0.13 nM,–,–,–
O=C1CCN(c2cccc3c2NC2=C(C(=O)Nc4ccccc4F)C(=O)CCN23)CC1 [Compound 23],≤ 3 mg/kg,–,–,–,–
"COCC(=O)N1CCN(c2cccc3c2N(C)C2=C(C(=O)Nc4ccccc4F)C(=O)CCN23)CC1 [Compound 22, Pyrido[1,2-a]benzimidazole-4-carboxamide, N-2-fluorophenyl-1,2,3-trihydro-3-oxo-5-methyl-6-[4-(2-methoxyacetyl)-1-piperazinyl]-]",> 3 mg/kg,0.24 nM,–,–,–
O=C1CCN2C(=C1C(=O)Nc1ccccc1F)Nc1c(N3CCOCC3)cccc12 [Compound 3],> 10 mg/kg,1.05 nM,3 mg/kg,–,> 1 mg/kg
CN1C2=C(C(=O)Nc3ccccc3F)C(=O)CCN2c2cccc(N3CCSCC3)c21 [Compound 15],1 mg/kg,0.23 nM,–,–,–
CN1C2=C(C(=O)Nc3ccccc3F)C(=O)CCN2c2cccc(N3CCCCC3)c21 [Compound 18],0.03 to 0.1 mg/kg,0.22 nM,0.65 mg/kg,–,–
CN1C2=C(C(=O)Nc3ccccc3F)C(=O)CCN2c2cccc(N3CCOCC3)c21 [Compound 12],–,0.15 nM,–,–,–
COc1cccc(NC(=O)C2=C3Nc4c(N5CCOCC5)cccc4N3CCC2=O)c1 [Compound 8],> 10 mg/kg,2.4 nM,–,–,–
COc1ccc(NC(=O)C2=C3Nc4c(N5CCCCC5)cccc4N3CCC2=O)cc1 [Compound 11],> 3 mg/kg,34.8 nM,–,–,–
O=C1CCN2C(=C1C(=O)Nc1c(F)cccc1F)Nc1c(N3CCOCC3)cccc12 [Compound 4],~0.1 mg/kg,0.23 nM,< 3 mg/kg,–,< 1 mg/kg
COc1ccccc1N1CCN(c2cccc3c2NC2=C(C(=O)Nc4ccccc4F)C(=O)CCN23)CC1 [Compound 6],> 10 mg/kg,~1000 nM,–,–,–
"O=C1CCN2C(=C1C(=O)Nc1c(F)cccc1F)Nc1c(N3CCCCC3)cccc12 [Compound 10, Pyrido[1,2-a]benzimidazole-4-carboxamide, N-(2,6-difluorophenyl)-1,2,3,5-tetrahydro-3-oxo-6-(1-piperidinyl)-]",3 mg/kg,0.41 nM,3.64 mg/kg,–,–
"O=C1CCN2C(=C1C(=O)Nc1ccccc1F)Nc1c2cccc1-n1ccnc1 [Compound 2, Pyrido[1,2-a]benzimidazole-4-carboxamide, N-2-fluorophenyl-1,2,3,5-tetrahydro-3-oxo-6-(1-imidazolyl)-]",> 10 mg/kg,3.48 nM,~5 mg/kg,–,1 mg/kg
CN1C2=C(C(=O)Nc3nccs3)C(=O)CCN2c2cccc(-n3ccnc3)c21 [Compound 16],> 3 mg/kg,2.12 nM,–,–,–
COc1ccc(NC(=O)C2=C3Nc4c(N5CCOCC5)cccc4N3CCC2=O)cc1 [Compound 7],0.1 mg/kg,2.04 nM,–,–,–
O=C1CCN2C(=C1C(=O)Nc1nccs1)Nc1c2cccc1-n1ccnc1 [Compound 17],> 3 mg/kg,160 nM,–,–,–
